According to patent US11576913B2 (priority 2018, dated 2023):
Where two headings read alike, the source gives them in different places.

Key:
[1] = system: subjects suffering from the Insomnia Disorder adult insomnia; format: in vivo, human
Protocol: Following the evening-time dosing with study drug, subjects underwent eight hours of continuous PSG recording. Next-day residual effects were assessed by the DSST and the KSS evaluation, collected in that order, starting at approximately 30 minutes after “lights-on.” All tests were administered in the clinical unit, beginning 30 minutes after lights-on and periodically thereafter for approximately 16 hours post-lights-off, following completion of PSG recording. Each subject also completed a post-sleep questionnaire once after lights-on so that subjective impressions could be assessed about the “quality” and “quantity” of their sleep. Before the second night dosing in each dosing period, subjects were evaluated for any residual sleepiness. […] Subjects remained in the clinic until residual symptoms were minimized.
The well-known DSST is a paper-and-pencil neuropsychological test that explores attention and psychomotor speed and was therefore useful as an indication of next day residual effects, if any. When administered in multiple sessions over time, the DSST provided an objective indication of the change in performance.
Each subject was asked to match symbols with their corresponding digit as follows. […] The subject filled in as many squares as possible during the allowed 90 second time limit. The score was determined from the number of correct symbols. An untimed 7 blank square practice opportunity was provided before the 90 second time period began. Six different versions of the test were used to avoid learning effects that could occur if only a single version was used.
The DSST was administered starting approximately ½ hour after lights-on (i.e., about 9 hours post-dosing) and at about 1, 3, 4, 5, and 7 hours thereafter following completion of PSG recordings after each night of the baseline visit (Visit 2) and after each night of Dosing Periods 1-5.
The DSST results shown, other than for the baseline, are the mean results obtained from the DSST scores following all nights of Dosing Periods 1-5 for the indicated dose. The DSST results for the baseline are the mean results obtained following the first and second nights of the baseline visit. Note that for clarity of display purposes, in FIG. 6 many of the test results at each time period, e.g., at approximately ½ hour after lights-on/9 hours post-dosing, were staggered arbitrarily away from the actual time when the test was conducted.

[2] = format: in vivo, human; settings: Compound (1C) tablets administered orally
Excerpt: The comparators in an abuse potential study are typically controlled substances from the same pharmacologic class as the investigational drug. However, Compound (1C) is a novel drug class for which no controlled substances/drugs of abuse are available for comparison. […] There was no evidence of other effects of interest to abusers, such as perceptual disturbances or stimulation. […] Placebo control was used to establish the frequency and magnitude of changes in clinical endpoints that may occur in the absence of active treatment as well as to minimize subject and investigator bias.

## O=C(O)c1nc2ccccc2n([C@H]2C[C@H]3CCC[C@@H](C2)N3C2CC3CCCC(C3)C2)c1=O (some centres unmarked) [Compound (1C)]
[1]; 0.5 mg, about 9 to about 16 hours post-dosing
  next day residual effects by mean DSST results vs placebo: no next day residual effects
[1]; 1.0 mg, about 9 to about 16 hours post-dosing
  next day residual effects by mean DSST results vs placebo: no next day residual effects
[1]; 3.0 mg, deviations at about 9, 10, 12, and 13 hours
  next day residual effects by mean DSST results vs placebo: minimal next day residual effects
[1]; 6.0 mg, each of the testing times
  next day residual effects by mean DSST results vs placebo: some next day residual effects
[2]
  Time to maximum concentration: approximately 1.5 hours
